In US20260070921A1, “COMPOUND, ENDOPLASMIC RETICULUM STRESS INHIBITOR, PHARMACEUTICAL PRODUCT, OPHTHALMIC AGENT, EYE DROPS, COMPOSITION, AND METHOD FOR PRODUCING COMPOUND” (KYOTO UNIVERSITY, priority 2022, published 2026):

Tests used:
CHOP = test: Quantitative RT-PCR of ER stress-related genes, CHOP; assay type: cell-based; conditions: pretreatment 10 h, tunicamycin 1.0 μg/mL 24 h
Description: (§1) First, total RNA was isolated using ISOGEN (tradename of Nippon Gene Co., Ltd.). cDNA was prepared using a Prime Script (trade name) first-strand cDNA synthesis kit (TaKaRa). qRT-PCR was performed with Fast SYBR Green Master Mix (Thermo Fisher) on a QuantStudio 3 real-time PCR system (Thermo Fisher). The copy number of each transcript is expressed relative to β-actin. The sequences of the primers (forward and reverse) are as follows: […]
(§2) The ability to alleviate endoplasmic reticulum (ER) stress of compound 1 was examined in HEK293 cells. FIGS. 1 and 2 show the biological activity of compound 1 for decreasing cytotoxicity under ER stress. […] Error bars represent s.d. (n=3). Statistical analysis was performed according to one-way ANOVA and a Dunnett's test using R software. […] To further study the effect of compound 1 on ER stress, mRNA levels of typical UPR genes, such as ATF4, s-XPB1, CHOP, BiP, and ERDJ4, were examined. In addition to compound 1, compound 6 was also tested in the same experiment. […] The quantitative RT-PCR was performed according to the method described above. HEK293 cells were treated with compound 1 (100 μM) for 10 hours and then incubated with tunicamycin (1.0 μg/mL) for 24 hours. Isolated RNA samples were subjected to reverse transcription and quantitative RT-PCR. […]

BSA = BSA (Bos taurus, UniProt P02769); test: Native PAGE analysis of heat-induced BSA denaturation; assay type: biochemical; conditions: 75° C. 1 h; compounds 100 μM, PBA 10 mM
Description: Samples were subjected to native PAGE analysis using 8% acrylamide gels in 0.1 M Tris-HCl, pH of 7.8 (cathode) and 68 mM glycine, 53 mM Tris-HCl, pH of 8.9 (anode). After staining the gel with Coomassie Brilliant Blue, images were taken using an ImageQuant LAS500 imager (Cytiva).

[1] = Dynamic light scattering (DLS) of self-assemblies; assay type: physicochemical
Excerpt: In the graphs on the left, the vertical axis “Z-ave. (nm)” represents the average particle size. In the graphs on the right, the vertical axis “Derived Count Rate (kcps)” represents the derived count rate. The horizontal axis represents the molar concentration (PM) of PBS (pH of 7.4) and DMEM (10% FBS). Error bars represent s.d. (n=3).
“Z-ave.” represents the average size of particles. Error bars represent s.d. (n=3).
“Z-average” represents the average size of particles. Error bars represent s.d. (n=3).

BiP = test: Quantitative RT-PCR of ER stress-related genes, BiP; assay type: cell-based; conditions: pretreatment 10 h, tunicamycin 1.0 μg/mL 24 h
Description: as §1, §2

HEK293 cells = test: Cell viability assay without ER stress inducer (cytotoxicity, WST-8); assay type: cell-based; conditions: 64 h
Description: HEK293 cells were treated with compound 1, compound 4, compound 5, or compound 6 (25 μM or 100 μM, respectively) for 64 hours. The vertical axis represents relative cell viability (unit: %), and the horizontal axis represents concentration (unit: μM). Cell viability was measured using a WST-8 cell counting kit. Error bars represent s.d. (n=3).
(§3) FIG. 31 is a graph showing the results of a cell viability assay using bafilomycin A1. HEK293 cells were treated with bafilomycin A1 in DMEM (10% FBS) for 48 hours. The vertical axis represents relative cell viability (unit: %), and the horizontal axis represents the concentration of bafilomycin A1 (unit: μM). Cell viability was measured using a WST-8 cell counting kit. Error bars represent s.d. (n=3).
as §3, with “32” for “31”, “MG132.” for “bafilomycin A1.”, “MG132” for “bafilomycin A1”, “t),” for “%),”
The term “Efficacy” denotes ER (endoplasmic reticulum) stress inhibition activity. The term “Toxicity” denotes cytotoxicity. In the ER stress inhibition activity (Efficacy), “−” indicates no activity, “+” indicates weak activity, and “++” indicates strong activity. In addition, “XD7” in Table 1 below represents compound 6. That is, XD7 and compound 6 are the same compound.

Sequence of BSA (P02769 25-607): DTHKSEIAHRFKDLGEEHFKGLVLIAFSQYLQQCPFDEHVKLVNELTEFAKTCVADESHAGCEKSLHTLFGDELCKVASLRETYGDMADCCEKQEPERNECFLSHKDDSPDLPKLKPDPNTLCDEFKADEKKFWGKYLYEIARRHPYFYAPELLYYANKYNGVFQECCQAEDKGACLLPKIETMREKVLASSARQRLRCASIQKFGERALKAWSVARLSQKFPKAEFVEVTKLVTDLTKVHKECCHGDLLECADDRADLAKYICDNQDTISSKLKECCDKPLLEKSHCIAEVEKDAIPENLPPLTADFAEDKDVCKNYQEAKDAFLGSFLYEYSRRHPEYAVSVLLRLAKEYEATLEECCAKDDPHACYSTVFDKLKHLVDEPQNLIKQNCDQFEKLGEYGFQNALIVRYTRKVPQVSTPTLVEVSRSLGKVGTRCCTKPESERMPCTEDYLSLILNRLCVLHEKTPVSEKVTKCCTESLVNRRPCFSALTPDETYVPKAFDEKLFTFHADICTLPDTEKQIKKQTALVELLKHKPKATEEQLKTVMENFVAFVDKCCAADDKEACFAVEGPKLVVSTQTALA

Compound	Increase in CHOP mRNA levels (CHOP)	Inhibition of heat-induced denaturation of BSA (BSA)	Average size of the assemblies (diameter) ([1]; cell culture medium, 25 μM) [nm]	Effect on BiP mRNA levels (BiP)	Cytotoxicity (HEK293 cells; at 25 μM)	Cytotoxicity (HEK293 cells; at 100 μM)	Average size of the assemblies (diameter) ([1]; DMEM (10% FBS), 100 μM) [nm]	Average size of the assemblies (diameter) ([1]; PBS (pH of 7.4), 100 μM)	Cytotoxicity (HEK293 cells; up to 100 μM)
COc1ccc2c(c1)sc1c(=O)nc3nc(Nc4ccc(S(N)(=O)=O)cc4)ccn3c12 [compound 6]	completely suppressed	does not exhibit activity to inhibit the thermal denaturation of BSA	130	limited effect	no obvious cytotoxicity	slightly reduced cell viability	–	–	–
NS(=O)(=O)c1ccc(Nc2ccn3c(n2)nc(=O)c2sc4cc(F)ccc4c23)cc1 [compound 1]	completely suppressed	does not exhibit activity to inhibit the thermal denaturation of BSA	–	limited effect	–	–	~200	about 700 nm	no obvious cytotoxicity
